{"source": "patent US10544095B2", "about": "(Pfizer Inc., priority 2015, dated 2020)", "key": {"[1]": {"biological_target": "human recombinant TDO2 enzyme (Homo sapiens (Human), UniProt P48775)", "sequence (P48775 whole entry)": "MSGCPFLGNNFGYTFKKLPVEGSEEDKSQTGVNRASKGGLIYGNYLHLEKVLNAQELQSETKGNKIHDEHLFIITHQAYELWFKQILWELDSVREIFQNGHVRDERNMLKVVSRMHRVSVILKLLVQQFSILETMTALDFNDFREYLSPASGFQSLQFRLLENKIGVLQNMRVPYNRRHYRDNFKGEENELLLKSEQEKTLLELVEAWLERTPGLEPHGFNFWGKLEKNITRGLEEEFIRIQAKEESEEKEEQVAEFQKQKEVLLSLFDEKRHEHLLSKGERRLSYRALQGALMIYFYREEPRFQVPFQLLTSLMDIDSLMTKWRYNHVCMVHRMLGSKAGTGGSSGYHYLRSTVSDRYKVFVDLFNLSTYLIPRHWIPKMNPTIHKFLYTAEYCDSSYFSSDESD", "test": "Assay for TDO2 enzymatic activity determination", "format": "biochemical", "conditions": "human recombinant TDO2, L-Trp 1 mM, kynurenine absorbance at 480 nm", "experimental": "The compounds of formula I, its subformulae, and enantiomers, salts and solvates thereof, are useful to inhibit the enzymatic activity of human TDO2. To measure the TDO2 activity, the procedure described in Dolusic et al. J. Med. Chem.; 2011, 54, […] was adapted: the reaction mixture contained (final concentrations) potassium phosphate buffer (50 mM, pH 7.5), ascorbic acid ([…]), methylene blue (0.125 μM), catalase (40 units/mL, from bovine liver, Sigma), and human recombinant TDO2 enzyme (prepared as described in Dolusic et al. J. Med. Chem.; 2011, 54, 5320-5334; 0.9 μg) without or with the compounds of the present invention at the indicated concentrations (total volume 112.5 μL). The reaction was initiated by the addition of 37.5 μL of L-Trp (final concentration 1 mM) at room temperature. The reaction was conducted at room temperature during one hour and stopped by the addition of 30 μL of 30% (w/v) trichloroacetic acid. To convert N-formylkynurenine into kynurenine, the reaction mixture was incubated at 65° C. for 30 min. […] Kynurenine concentrations were determined by measuring the absorbance at 480 nm. A standard curve was made with pure kynurenine. The TDO activity was measured as described above using ten serial concentrations of the compounds of the present invention. Data were fitted using the Prism™ software (GraphPad Software, Inc.) using standard parameters."}, "[2]": {"biological_target": "hTDO2 in human glioblastoma A172 cells (Homo sapiens (Human), UniProt P48775)", "sequence (P48775 whole entry)": "as above", "test": "Cellular assay for TDO2 activity determination in A172 cells", "format": "cell-based", "conditions": "overnight incubation, kynurenine absorbance at 480 nm", "procedure,_shortened": "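Glioblastoma A172 cells with endogenous hTDO2, 1.25×10^4 cells/well, incubated overnight at 37° C. with ten serial compound concentrations in IMDM with 2% FBS. Supernatant kynurenine, after TCA precipitation and 4-(dimethylamino)-benzaldehyde reaction, read at 480 nm against kynurenine standard curve; data curve-fitted.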"}, "[3]": {"biological_target": "TDO2 (Mus musculus (Mouse), UniProt P48776)", "sequence (P48776 whole entry)": "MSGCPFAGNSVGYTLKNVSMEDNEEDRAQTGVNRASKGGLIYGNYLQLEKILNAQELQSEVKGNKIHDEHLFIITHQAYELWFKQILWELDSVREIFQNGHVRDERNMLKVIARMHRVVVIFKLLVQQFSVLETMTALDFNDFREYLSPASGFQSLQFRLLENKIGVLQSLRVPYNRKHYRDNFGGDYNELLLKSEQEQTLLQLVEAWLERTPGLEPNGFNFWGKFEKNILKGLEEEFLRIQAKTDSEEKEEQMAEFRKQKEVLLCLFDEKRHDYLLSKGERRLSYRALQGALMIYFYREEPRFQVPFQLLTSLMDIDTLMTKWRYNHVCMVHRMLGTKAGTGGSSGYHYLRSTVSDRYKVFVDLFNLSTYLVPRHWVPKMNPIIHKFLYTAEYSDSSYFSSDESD", "test": "Pharmacodynamic assay for TDO2 in vivo activity: increase of blood tryptophan levels in mice", "conditions": "female BALB/c mice, plasma after two hours", "experimental": "The compounds of the present invention increase the amount of Tryptophan in mouse blood. Briefly, female BALB/c mice (7-8 weeks old) were treated with either a suspension of one of the compounds of the present invention in 0.5% hydroxypropyl methyl cellulose (HPMC) K4M (4000 mPa·s (cPs), Methocell™, Dow chemical)/0.25% Tween® 20 (Sigma Aldrich) at different doses (30, 60 and 100 mg/kg), or with a vehicle control (0.5% HPMC K4M/0.25% Tween 20), by the oral route by gavage (dosing volume 5 mL/kg, 10 mice per group). After two hours, blood was harvested, plasma was prepared and the amount of Tryptophan present was determined by LC-MS-MS (HPLC column Unison UK-Phenyl, 75×4.6, 3 μm, flow rate 0.8 mL/min, 8 minutes gradient from 95% water+0.1% formic acid/5% Acetonitrile+0.1% formic acid to 5% water+0.1% formic acid/95% Acetonitrile+0.1% formic acid, retention time 2.4 min; API4000 MS-MS system from AB Sciex, ESI+ mode, parent ion 205.1, daughter ion 146.1)."}}}
{"compound": "O=S(=O)(c1ccc(-c2c[nH]c3cc(F)ccc23)cc1)N1CCN[C@H](CO)C1", "note": "[Example 18, (S)-(4-((4-(6-fluoro-1H-indol-3-yl)phenyl)sulfonyl)piperazin-2-yl)methanol]", "values": [{"measurement": "IC50", "setting": "[1]", "result": 1100, "unit": "nM"}, {"measurement": "IC50", "setting": "[2]", "result": 190, "unit": "nM"}, {"measurement": "increase of circulating Tryptophan compared to vehicle-treated controls", "setting": "[3]; 30 mg/kg oral gavage", "result": 67, "unit": "%"}, {"measurement": "increase of circulating Tryptophan compared to vehicle-treated controls", "setting": "[3]; 60 mg/kg oral gavage", "result": 81, "unit": "%"}, {"measurement": "increase of circulating Tryptophan compared to vehicle-treated controls", "setting": "[3]; 100 mg/kg oral gavage", "result": 74, "unit": "%"}]}
